Data on 21 molecules can be found in patent US11324749B2, “Combination therapy for treatment of hematological diseases” (Incyte Corporation, priority 2018, dated 2022).

Assay [1] addresses human JAK2 (a.a. 828-1132) (Homo sapiens (Human), UniProt O60674). Kind of assay: In vitro JAK kinase assay (HTRF), JAK2 versus JAK1. Type of assay: biochemical. Particulars: IC50 ratio, 1 mM ATP.
Description: (§1) The catalytic activity of JAK1, JAK2, or JAK3 was assayed by measuring the phosphorylation of a biotinylated peptide. The phosphorylated peptide was detected by homogenous time resolved fluorescence (HTRF). […] Reactions are carried out at room temperature for 1 hour and then stopped with 20 μL 45 mM EDTA, 300 nM SA-APC, 6 nM Eu-Py20 in assay buffer (Perkin Elmer, Boston, Mass.). Binding to the Europium labeled antibody takes place for 40 minutes and HTRF signal was measured on a Fusion plate reader (Perkin Elmer, Boston, Mass.).
The target in assay [2] is human JAK1 (a.a. 837-1142) (Homo sapiens, UniProt P23458). Description: In vitro JAK kinase assay (HTRF), JAK1. The assay is classed as biochemical. The conditions noted are these: 1 mM ATP. Background: In TR-FRET formats the signal depends on donor and acceptor labels being close together.
Description: as §1

Chain of human JAK2 (a.a. 828-1132) (O60674 828-1132): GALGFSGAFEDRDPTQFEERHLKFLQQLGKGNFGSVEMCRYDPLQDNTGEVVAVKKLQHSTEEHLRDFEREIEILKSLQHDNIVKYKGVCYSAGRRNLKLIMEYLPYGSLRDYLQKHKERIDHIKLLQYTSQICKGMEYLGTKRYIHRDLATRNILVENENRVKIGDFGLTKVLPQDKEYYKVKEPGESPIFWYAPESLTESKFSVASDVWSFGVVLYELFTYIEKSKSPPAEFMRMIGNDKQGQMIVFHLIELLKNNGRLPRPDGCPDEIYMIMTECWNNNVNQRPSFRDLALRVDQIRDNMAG

For the molecule `C[C@@H](CO)NCc1cc(OC2CCN([C@H]3C[C@](CC#N)(n4cc(-c5ncnc6[nH]ccc56)cn4)C3)CC2)nc(C(F)(F)F)c1` [Compound 23, {trans-3-(4-{[4-({[(1S)-2-hydroxy-1-methylethyl]amino}methyl)-6-(trifluoromethyl)pyridin-2-yl]oxy}piperidin-1-yl)-1-[4-(7H-pyrrolo[2,3-d]pyrimidin-4-yl)-1H-pyrazol-1-yl]cyclobutyl}acetonitrile], in assay [1], the JAK2/JAK1 is on record as more than 10. In assay [2], this molecule yielded an IC50 of less than 10 nM.
For `N#CCC(CN1CCN(C(=O)c2ccc(C#N)cc2F)CC1)n1ccc(-c2ncnc3[nH]ccc23)c1` (stereo not drawn) [Compound 9, 4-[(4-{3-cyano-2-[3-(7H-pyrrolo[2,3-d]pyrimidin-4-yl)-1H-pyrrol-1-yl]propyl}piperazin-1-yl)carbonyl]-3-fluorobenzonitrile] the same measures were more than 10 and less than 10 nM.
`N#CCC1(n2cc(-c3ncnc4[nH]ccc34)cn2)CN(C2CCN(C(=O)c3ccnc(C(F)(F)F)n3)CC2)C1` [Compound 3, [3-[4-(7H-pyrrolo[2,3-d]pyrimidin-4-yl)-1H-pyrazol-1-yl]-1-(1-{[2-(trifluoromethyl)pyrimidin-4-yl]carbonyl}piperidin-4-yl)azetidin-3-yl]acetonitrile]: in assay [1], the JAK2/JAK1 is on record as more than 10. In addition, the IC50 in assay [2] is less than 10 nM.
Take `N#CCC(C1CCN(c2nc3cccnc3o2)C1)n1cc(-c2ncnc3[nH]ccc23)cn1` (stereo not drawn) [Compound 7, 3-(1-[1,3]oxazolo[5,4-b]pyridin-2-ylpyrrolidin-3-yl)-3-[4-(7H-pyrrolo[2,3-d]pyrimidin-4-yl)-1H-pyrazol-1-yl]propanenitrile]: the JAK2/JAK1 in assay [1] is listed as more than 10. In assay [2], this molecule returned an IC50 of less than 10 nM.
The like results for `N#CC[C@]1(n2cc(-c3ncnc4[nH]ccc34)cn2)C[C@H](N2CCC(Oc3cc(CN4CCC[C@@H]4CO)cc(C(F)(F)F)n3)CC2)C1` [Compound 13, {trans-3-(4-{[4-{[(2R)-2-(hydroxymethyl)pyrrolidin-1-yl]methyl}-6-(trifluoromethyl)pyridin-2-yl]oxy}piperidin-1-yl)-1-[4-(7H-pyrrolo[2,3-d]pyrimidin-4-yl)-1H-pyrazol-1-yl]cyclobutyl}acetonitrile] were, in that order, more than 10 and less than 10 nM.
On to `N#CCC(CN1CCN(C(=O)c2ccc(C#N)cc2F)CC1)n1cc(-c2ncnc3[nH]ccc23)cn1` (stereo not drawn) [Compound 8, 4-[(4-{3-cyano-2-[4-(7H-pyrrolo[2,3-d]pyrimidin-4-yl)-1H-pyrazol-1-yl]propyl}piperazin-1-yl)carbonyl]-3-fluorobenzonitrile], for which the JAK2/JAK1 in assay [1] was more than 10. In assay [2], this molecule yielded an IC50 of less than 10 nM.
For `N#CC[C@]1(n2cc(-c3ncnc4[nH]ccc34)cn2)C[C@H](N2CCC(Oc3cc(CCO)cc(C(F)(F)F)n3)CC2)C1` [Compound 26, {trans-3-(4-{[4-(2-hydroxyethyl)-6-(trifluoromethyl)pyridin-2-yl]oxy}piperidin-1-yl)-1-[4-(7H-pyrrolo[2,3-d]pyrimidin-4-yl)-1H-pyrazol-1-yl]cyclobutyl}acetonitrile] the same measures were more than 10 and less than 10 nM.
The like results for `N#CC[C@]1(n2cc(-c3ncnc4[nH]ccc34)cn2)C[C@H](N2CCC(Oc3cc(CN4CC(O)C4)cc(C(F)(F)F)n3)CC2)C1` [Compound 11, {trans-3-(4-{[4-[(3-hydroxyazetidin-1-yl)methyl]-6-(trifluoromethyl)pyridin-2-yl]oxy}piperidin-1-yl)-1-[4-(7H-pyrrolo[2,3-d]pyrimidin-4-yl)-1H-pyrazol-1-yl]cyclobutyl}acetonitrile] were, in that order, more than 10 and less than 10 nM.
For `CCNCc1cc(O[C@H]2CC[C@@H](N3CC(CC#N)(n4cc(-c5ncnc6[nH]ccc56)cn4)C3)CC2)nc(C(F)(F)F)c1` [Compound 19, {1-(cis--4{[4-[(ethylamino)methyl]-6-(trifluoromethyl)pyridin-2-yl]oxy}cyclohexyl)-3-[4-(7H-pyrrolo[2,3-d]pyrimidin-4-yl)-1H-pyrazol-1-yl]azetidin-3-yl}acetonitrile] the same measures were more than 10 and less than 10 nM.
In the case of `CC(C)(O)c1cc(O[C@H]2CC[C@@H](N3CC(CC#N)(n4cc(-c5ncnc6[nH]ccc56)cn4)C3)CC2)nc(C(F)(F)F)c1` [Compound 20, {1-(cis-4-{[4-(1-hydroxy-1-methylethyl)-6-(trifluoromethyl)pyridin-2-yl]oxy}cyclohexyl)-3-[4-(7H-pyrrolo[2,3-d]pyrimidin-4-yl)-1H-pyrazol-1-yl]azetidin-3-yl}acetonitrile], the JAK2/JAK1 in assay [1] is more than 10. The IC50 in assay [2] was less than 10 nM.
For `C[C@H](O)CNCc1cc(OC2CCN([C@H]3C[C@](CC#N)(n4cc(-c5ncnc6[nH]ccc56)cn4)C3)CC2)nc(C(F)(F)F)c1` [Compound 25, {trans-3-(4-{[4-({[(2S)-2-hydroxypropyl]amino}methyl)-6-(trifluoromethyl)pyridin-2-yl]oxy}piperidin-1-yl)-1-[4-(7H-pyrrolo[2,3-d]pyrimidin-4-yl)-1H-pyrazol-1-yl]cyclobutyl}acetonitrile] the same measures were more than 10 and less than 10 nM.
The like results for `C[C@@H](O)CNCc1cc(OC2CCN([C@H]3C[C@](CC#N)(n4cc(-c5ncnc6[nH]ccc56)cn4)C3)CC2)nc(C(F)(F)F)c1` [Compound 24, {trans-3-(4-{[4-({[(2R)-2-hydroxypropyl]amino}methyl)-6-(trifluoromethyl)pyridin-2-yl]oxy}piperidin-1-yl)-1-[4-(7H-pyrrolo[2,3-d]pyrimidin-4-yl)-1H-pyrazol-1-yl]cyclobutyl}acetonitrile] were, in that order, more than 10 and less than 10 nM.
For `N#CC[C@]1(n2cc(-c3ncnc4[nH]ccc34)cn2)C[C@H](N2CCN(C(=O)c3ccnc(C(F)(F)F)n3)CC2)C1` [Compound 10, [trans-1-[4-(7H-pyrrolo[2,3-d]pyrimidin-4-yl)-1H-pyrazol-1-yl]-3-(4-{[2-(trifluoromethyl)pyrimidin-4-yl]carbonyl}piperazin-1-yl)cyclobutyl]acetonitrile] the same measures were more than 10 and less than 10 nM.
In the case of `N#CCC1(n2cc(-c3ncnc4[nH]ccc34)cn2)CN([C@H]2CC[C@@H](Oc3cc(CN4CC[C@@H](O)C4)cc(C(F)(F)F)n3)CC2)C1` [Compound 21, {1-(cis-4-{[4-{[(3R)-3-hydroxypyrrolidin-1-yl]methyl}-6-(trifluoromethyl)pyridin-2-yl]oxy}cyclohexyl)-3-[4-(7H-pyrrolo[2,3-d]pyrimidin-4-yl)-1H-pyrazol-1-yl]azetidin-3-yl}acetonitrile], the JAK2/JAK1 in assay [1] is more than 10. The IC50 in assay [2] is less than 10 nM.
For `C[C@@H](O)c1nc2cnc3ccsc3c2n1[C@H]1CC[C@H](CC#N)OC1` [Compound 5, ((2R,5S)-5-{2-[(1R)-1-hydroxyethyl]-1H-imidazo[4,5-d]thieno[3,2-b]pyridin-1-yl}tetrahydro-2H-pyran-2-yl)acetonitrile] the same measures were more than 10 and less than 100 nM.
For `N#CCC(C1CCN(c2cccc(Cl)n2)C1)n1cc(-c2ncnc3[nH]ccc23)cn1` (single isomer, unassigned) [Compound 6, 3-[1-(6-chloropyridin-2-yl)pyrrolidin-3-yl]-3-[4-(7H-pyrrolo[2,3-d]pyrimidin-4-yl)-1H-pyrazol-1-yl]propanenitrile] the same measures were more than 10 and less than 10 nM.
The like results for `N#CCC1(n2cc(-c3ncnc4[nH]ccc34)cn2)CN([C@H]2CC[C@@H](Oc3cc(CCO)nc(C(F)(F)F)n3)CC2)C1` [Compound 18, {1-(cis-4-{[6-(2-hydroxyethyl)-2-(trifluoromethyl)pyrimidin-4-yl]oxy}cyclohexyl)-3-[4-(7H-pyrrolo[2,3-d]pyrimidin-4-yl)-1H-pyrazol-1-yl]azetidin-3-yl}acetonitrile] were, in that order, more than 10 and less than 10 nM.
As for `N#CCC1(n2cc(-c3ncnc4[nH]ccc34)cn2)CN([C@H]2CC[C@@H](Oc3cc(CN4CC[C@H](O)C4)cc(C(F)(F)F)n3)CC2)C1` [Compound 22, {1-(cis-4-{[4-{[(3S)-3-hydroxypyrrolidin-1-yl]methyl}-6-(trifluoromethyl)pyridin-2-yl]oxy}cyclohexyl)-3-[4-(7H-pyrrolo[2,3-d]pyrimidin-4-yl)-1H-pyrazol-1-yl]azetidin-3-yl}acetonitrile], in assay [1], the JAK2/JAK1 was more than 10. The IC50 in assay [2] was less than 10 nM.
The like results for `N#CCC1(n2cc(-c3ncnc4[nH]ccc34)cn2)CN(C2CCN(C(=O)Nc3ccc(F)cc3C(F)(F)F)CC2)C1` [Compound 2, 4-{3-(Cyanomethyl)-3-[4-(7H-pyrrolo[2,3-d]pyrimidin-4-yl)-1H-pyrazol-1-yl]azetidin-1-yl}-N-[4-fluoro-2-(trifluoromethyl)phenyl] piperidine-1-carboxamide] were, in that order, more than 10 and less than 10 nM.
For `C[C@H](NC(=O)c1cc(F)c(N2CC(CC#N)(n3cc(-c4ncnc5[nH]ccc45)cn3)C2)cc1F)C(F)(F)F` [Compound 16, 4-{3-(cyanomethyl)-3-[4-(7H-pyrrolo[2,3-d]pyrimidin-4-yl)-1H-pyrazol-1-yl]azetidin-1-yl}-2,5-difluoro-N-[(1S)-2,2,2-trifluoro-1-methylethyl]benzamide], the JAK2/JAK1 in assay [1] is more than 10. The molecule further displayed an IC50 in assay [2] of less than 10 nM.
As for `N#CC[C@]1(n2cc(-c3ncnc4[nH]ccc34)cn2)C[C@H](N2CCC(Oc3cc(CN4CCC[C@H]4CO)cc(C(F)(F)F)n3)CC2)C1` [Compound 12, {trans-3-(4-{[4-{[(2S)-2-(hydroxymethyl)pyrrolidin-1-yl]methyl}-6-(trifluoromethyl)pyridin-2-yl]oxy}piperidin-1-yl)-1-[4-(7H-pyrrolo[2,3-d]pyrimidin-4-yl)-1H-pyrazol-1-yl]cyclobutyl}acetonitrile], the JAK2/JAK1 in assay [1] is reported as more than 10. This molecule yielded an IC50 in assay [2] of less than 10 nM.

A word on the IC50: it is the point on the concentration scale where inhibition reaches its midpoint. Read a low IC50 as higher potency.
